Measurements from US20080234233A1, “MEDICAMENT FOR TREATMENT OF NEURODEGENERATIVE DISEASES” (INSTITUTE OF MEDICINAL MOLECULAR DESIGN INC., priority 2002, published 2008).

Legend:
[1] = tested on: NF-κ B activation; experiment: Inhibitory activity of NF-κB activation, luciferase reporter assay under TNF-α stimulation in HepG2; assay type: cell-based, human; details: HepG2, TNF-α 40 ng/ml, 4 hours; for inhibition at 1 µg/mL / inhibition at 10 µg/mL: Homo sapiens, read-out: Inhibitory rate against NF-κB activation (%)
Outline: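 HepG2 cells transiently transfected with luciferase reporter carrying five tandem NF-κB binding sites, then stimulated with TNF-α (40 ng/ml) ± compound for 4 hours. Luminescent luciferase activity measured; inhibition expressed relative to activity without compound.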

[2] = tested on: AP-1 activation; experiment: Inhibition against AP-1 activation by TNF α stimulation, luciferase reporter assay in HeLa; assay type: cell-based, human; details: TNF-α 40 ng/ml, 4 hours
Protocol: Measurement of Inhibition Against AP-1 Activation by TNF α Stimulation
Using a transfection reagent(Effectene; QIAGEN), the human uterine cancer cell strain HeLa was transfected with a plasmid(pAP-1-Luc Reporter Plasmid: […]) integrated with an oligonucleotide having seven tandem copies of AP-1 binding sequences(TGACTAA) on an upstream region of firefly luciferase gene(Luc) according to the QIAGEN's protocol, and the cells were incubated for 6 to 24 hours. After addition of TNF-α (40 ng/ml) in the presence or absence of a test compound, the cells were incubated for 4 hours, and intracellular luciferase activity was measured by using PicaGene LT(TOYO INK MFG Co., Ltd.) and a chemical luminescence measurement apparatus([…]luor Plus; TECAN). The inhibitory ratio was measured as a ratio relative to the value of the luciferase activity in the absence of the test compound.

Row | Structure (SMILES) | Inhibitory rate against NF-κB activation (%) ([1]; Drug concentration at 1 μg/mL) | Inhibitory rate against NF-κB activation (%) ([1]; Drug concentration at 10 μg/mL) | inhibition at 1 µg/mL ([1]; Drug concentration at 1 μg/mL) [%] | other results
1 | O=C(Nc1cc(C(F)(F)F)cc(C(F)(F)F)c1)c1cc(Br)ccc1O [compound 6] | 94.9 | 98.6 | – | Inhibitory rate against AP-1 activation(%) ([2]; Drug concentration at 1 μg/mL): 48.4%; Inhibitory rate against AP-1 activation(%) ([2]; Drug concentration at 10 μg/mL): 91.2%
2 | O=C(Nc1nc(-c2ccccc2)c(C(=O)O)s1)c1cc(Br)ccc1O [compound 217, 2-(5-bromo-2-hydroxybenzoyl)amino-4-phenylthiazole-5-carboxylic acid] | – | – | – | inhibition at 1 µg/mL ([2]; Homo sapiens, Drug concentration at 1 μg/mL, read-out: Inhibitory rate against AP-1 activation(%)): 21.7%; inhibition at 10 µg/mL ([2]; Homo sapiens, Drug concentration at 10 μg/mL, read-out: Inhibitory rate against AP-1 activation(%)): 55.3%
3 | CCOC(=O)c1sc(NC(=O)c2cc(Br)ccc2O)nc1C(F)(F)F [compound 224] | 87.6 | 96.5 | – | –
4 | CCOC(=O)c1sc(NC(=O)c2cc(-c3ccc(F)cc3)ccc2O)nc1-c1ccccc1 [compound 226] | 45.0 | 85.8 | – | –
5 | CCOC(=O)c1sc(NC(=O)c2cc(-c3ccc(F)cc3F)ccc2O)nc1-c1ccccc1 [compound 227] | 31.8 | 90.3 | – | –
6 | CCOC(=O)c1sc(NC(=O)c2cc(-c3ccc(C(F)(F)F)cc3)ccc2O)nc1-c1ccccc1 [compound 228, 2-{[4-Hydroxy-4′-(trifluoromethyl)biphenyl]-3-carbonyl}amino-4-phenylthiazole-5-carboxylic acid ethyl ester] | – | 90.0 | – | –
7 | CCOC(=O)c1sc(NC(=O)c2cc(-n3cccc3)ccc2O)nc1-c1ccccc1 [compound 229] | 74.0 | 90.1 | – | –
8 | CCOC(=O)c1sc(NC(=O)c2cc(-c3cccs3)ccc2O)nc1-c1ccccc1 [compound 230, 2-[2-Hydroxy-5-(2-thienyl)benzoyl]amino-4-phenylthiazole-5-carboxylic acid ethyl ester] | – | – | 40.8 | inhibition at 10 µg/mL ([1]; Drug concentration at 10 μg/mL): 84.8%
9 | O=C(Nc1nc(-c2cc(C(F)(F)F)cc(C(F)(F)F)c2)cs1)c1cc(Cl)ccc1O [compound 231, 5-Chloro-2-hydroxy-N-{4-[3,5-bis(trifluoromethyl)phenyl]thiazol-2-yl}benzamide] | – | – | 95.9 | inhibition at 10 µg/mL ([1]; Drug concentration at 10 μg/mL): 94.5%
10 | CCOC(=O)c1c(NC(=O)c2cc(Cl)ccc2O)sc2c1CCCC2 [compound 232] | 88.2 | 85.4 | – | –
11 | O=C(Nc1cc(-c2ccccc2)[nH]n1)c1cc(Br)ccc1O [compound 233] | 26.6 | 84.7 | – | –
12 | CCc1nc(NC(=O)c2cc(Br)ccc2O)oc1CC [compound 234, 5-Bromo-N-(4,5-diethyloxazol-2-yl)-2-hydroxybenzamide] | – | – | 29.1 | inhibition at 10 µg/mL ([1]; Drug concentration at 10 μg/mL): 63.1%
13 | O=C(Nc1nc(-c2ccccc2)c(-c2ccccc2)o1)c1cc(Br)ccc1O [compound 235] | – | 81.8 | – | –
14 | O=C(Nc1nc(-c2ccco2)c(-c2ccco2)o1)c1cc(Br)ccc1O [compound 236, 5-Bromo-N-[4,5-bis(furan-2-yl)oxazol-2-yl]-2-hydroxybenzamide] | – | – | 21.4 | inhibition at 10 µg/mL ([1]; Drug concentration at 10 μg/mL): 56%
15 | O=C(Nc1nnc(C(F)(F)F)s1)c1ccccc1O [compound 237, 2-Hydroxy-N-(5-trifluoromethyl-1,3,4-thiadiazol-2-yl)benzamide] | – | – | – | inhibition at 10 µg/mL ([1]; Drug concentration at 10 μg/mL): 81.9%
16 | O=C(Nc1nnc(C(F)(F)F)s1)c1cc(Br)ccc1O [compound 238] | 26.1 | 90.3 | – | –
17 | O=C(Nc1ccc(Cl)nc1)c1cc(Cl)ccc1O [compound 240] | 14.3 | 92.3 | – | –
18 | COc1cc(Cl)nc(NC(=O)c2cc(Cl)ccc2O)n1 [compound 241] | 25.5 | 78.9 | – | –
19 | O=C(Nc1cnc2ccccc2c1)c1cc(Cl)ccc1O [compound 242] | – | 85.7 | – | –
20 | O=C(Nc1cccc(Br)n1)c1cc(Cl)ccc1O [compound 243] | 84.2 | 95.1 | – | –

Row | Structure (SMILES) | Inhibitory rate against NF-κB activation (%) ([1]; Drug concentration at 1 μg/mL) | Inhibitory rate against NF-κB activation (%) ([1]; Drug concentration at 10 μg/mL) | inhibition at 1 µg/mL ([1]; Drug concentration at 1 μg/mL) [%] | other results
21 | O=C(Nc1cc(C(F)(F)F)cc(C(F)(F)F)c1)c1cc(S(=O)(=O)Nc2cc(C(F)(F)F)cc(C(F)(F)F)c2)ccc1O [compound 247] | – | >99.9 | – | –
22 | O=C(Nc1cc(C(F)(F)F)cc(C(F)(F)F)c1)c1cccc(-c2ccccc2)c1O [compound 249, N-[3,5-bis(trifluoromethyl)phenyl]-2-hydroxy-3-phenylbenzamide] | – | – | 86.6 | inhibition at 10 µg/mL ([1]; Drug concentration at 10 μg/mL): 90.7%
23 | O=C(Nc1cc(C(F)(F)F)cc(C(F)(F)F)c1)c1ccc(F)cc1O [compound 250] | 94.2 | 95.4 | – | –
24 | N#Cc1ccc(Oc2ccc(C(F)(F)F)cc2NC(=O)c2cc(Cl)ccc2O)cc1 [compound 252] | 93.9 | 96.3 | – | –
25 | COc1ccc(Oc2ccc(C(F)(F)F)cc2NC(=O)c2cc(Cl)ccc2O)cc1 [compound 253] | 96.3 | 99.5 | – | –
26 | O=C(Nc1nc(-c2ccc(Cl)cc2Cl)cs1)c1cc(Cl)ccc1O [compound 255, 5-Chloro-2-hydroxy-N-[4-(2,4-dichlorophenyl)thiazol-2-yl]benzamide] | – | – | > 99.9 | –
27 | CC(C)c1cccc(C(=O)Nc2cc(C(F)(F)F)cc(C(F)(F)F)c2)c1O [compound 256, N-[3,5-bis(trifluoromethyl)phenyl]-2-hydroxy-3-isopropylbenzamide] | – | – | 92.1 | –
28 | CC(C)c1cc(Br)cc(C(=O)Nc2cc(C(F)(F)F)cc(C(F)(F)F)c2)c1O [compound 257] | >99.9 | – | – | –
29 | Cc1cc(Br)cc(C(=O)Nc2cc(C(F)(F)F)cc(C(F)(F)F)c2)c1O [compound 258] | >99.9 | – | – | –
30 | O=C(Nc1cc(C(F)(F)F)cc(C(F)(F)F)c1)c1cc(Br)cc(-c2ccccc2)c1O [compound 259] | >99.9 | – | – | –
31 | O=C(Nc1nc(-c2ccc(Cl)c(Cl)c2)cs1)c1cc(Cl)ccc1O [compound 260, 5-Chloro-2-hydroxy-N-[4-(3,4-dichlorophenyl)thiazol-2-yl]benzamide] | – | – | > 99.9 | –
32 | O=C(Nc1nc(-c2ccc(C(F)(F)F)cc2)cs1)c1cc(Cl)ccc1O [compound 261, 5-Chloro-2-hydroxy-N-{4-[4-(trifluoromethyl)phenyl]thiazol-2-yl}benzamide] | – | – | > 99.9 | –
33 | O=C(Nc1cc(C(F)(F)F)cc(C(F)(F)F)c1)c1ccc(-c2ccccc2)cc1O [compound 262, N-[3,5-Bis(trifluoromethyl)phenyl]-2-hydroxy-4-phenylbenzamide] | – | – | > 99.9 | –
34 | O=C(Nc1nc(-c2cc(F)ccc2F)cs1)c1cc(Cl)ccc1O [compound 263, 5-Chloro-2-hydroxy-N-[4-(2,5-difluorophenyl)thiazol-2-yl]benzamide] | – | – | > 99.9 | –
35 | COc1ccc(-c2csc(NC(=O)c3cc(Cl)ccc3O)n2)cc1 [compound 264, 5-Chloro-2-hydroxy-N-[4-(4-methoxyphenyl)thiazol-2-yl]benzamide] | – | – | > 99.9 | –
36 | O=C(Nc1nc(-c2cccc(C(F)(F)F)c2)cs1)c1cc(Cl)ccc1O [compound 265, 5-Chloro-2-hydroxy-N-{4-[3-(trifluoromethyl)phenyl]thiazol-2-yl}benzamide] | – | – | > 99.9 | –
37 | O=C(Nc1nc(-c2c(F)c(F)c(F)c(F)c2F)cs1)c1cc(Cl)ccc1O [compound 266, 5-Chloro-2-hydroxy-N-[4-(2,3,4,5,6-pentafluorophenyl)thiazol-2-yl]benzamide] | – | – | > 99.9 | –
38 | Cc1ccc(C(=O)c2ccccc2)c(NC(=O)c2cc(Cl)ccc2O)c1 [compound 267] | 28.6 | – | – | –
39 | O=C(Nc1cc(C(F)(F)F)ccc1C(F)(F)F)c1cc(Br)ccc1O [compound 268] | 87.1 | 98.4 | – | –
